“Also recorded” adds a separate entry of the source.
Key:
neurofibrillary tangles = assay: Fluorescence labelling of tangles (sections, ifI tangle suspensions); format: binding, human
Protocol: In ifI suspensions such as this, tangles can be seen by blue fluorescence which is […] from that associated with binding of contaminants in the preparation. […] (a) Chemical labelling with the biotinylated benzothiazole analogue shown as 4b in FIG. 4. PHFs were deposited on a carbon-coated grid after Pronase digestion, and incubated briefly with compound 4b, and then incubated with an anti-biotin antibody preparation that had been conjugated with colloidal gold. […] (b) mAb 423 immunolabelling of isolated PHFs after Pronase digestion., followed by incubation with a gold-conjugated goat anti-mouse second antibody as described in Novak et al. 1993 (Novak M, Kabat J, Wischik C M (1993) “Molecular characterisation of the minimal protease-resistant tau unit of the Alzheimers' disease paired helical filament”, EMBO J. 12: 365-370). As shown in this paper, mAb 423 labels PHFs derived from intracellular tangles (which preserve N-terminal tau immunoreactivity in the fuzzy outer coat) poorly, but Pronase digested PHFs strongly.
Serial 16 μm sections are cut from the hippocampus of a case dying with clinically and neuropathologically confirmed AD. […]
A Leitz fluorescence microscope fitted with a photo-multiplyer tube (Model MPV-2) was used to quantitate fluorescence emission. […]

tau-tau binding = biological target: T1, tau-tau binding (Homo sapiens, UniProt P10636); assay: Relief of DMMB inhibition of tau-tau binding by ligands (Preparation 2); format: biochemical; settings: for BMax of tau-tau binding: Binding=(BMax×[ligand])/(Kd+[ligand])
T1 construct: a truncated tau protein corresponding to the core fragment and terminating at Ala390-dGA; dGAE which terminates at Glu-391; made in house; host or cells: E. coli BL21 (DE3), pRK172; DE52 flow-through, P11 phosphocellulose, PEG concentration, no heat step (Preparation 2)
Description: 2. using tau proteins prepared in this manner for testing putative ligands in the tau-tau binding assay provided in WO96/30766 to identify substances which have minimal or entirely absent activity as tau-aggregation inhibitors or enhance tau-tau binding at high concentrations; 3. testing putative ligands in the presence of an exemplary potent tau-aggregation inhibitor, such as DMMB, at an inhibitory concentration; 4. putative ligands can be identified by the property that they lack capacity to block tau-tau binding through the repeat domain, but block the inhibitory activity of a potent tau-aggregation inhibitor.
(ii) contacting (a) a tau protein or a derivative thereof containing the tau core fragment bound to a solid phase so as to expose a high affinity tau capture site (e.g. a truncated tau protein corresponding to the core fragment and terminating at Ala390-dGA), with (b) a liquid phase tau protein or derivative thereof capable of binding to the solid phase tau protein or derivative (e.g. dGAE which terminates at Glu-391), and (c) said selected first agent and (d) a second agent known to be tau-tau binding inhibitor, (iii) selecting a first agent which fully or partially relieves the inhibition of binding of the liquid phase tau protein or derivative of (b) to the solid phase tau protein or derivative of (a) by the inhibitor (d).
Similar results are shown for 15 μM DMMB in the presence of increasing concentrations of Primulin (c) and Thiazin Red (d).
For each graph, Tau-Tau binding is shown in the presence of constant concentrations of DMMB co-incubated with Primulin at 0×, 1×, 5×, 10×, 100× the DMMB concentrations shown.
This implies that the Tau-aggregation enhancement effect of these ligands is proportional to the fraction of ligand-binding sites occupied, presumably within the Tau aggregates introduced into the aqueous-phase of the assay. The mean Bmax for both ligands is ˜1.6. That is, the maximum ligand effect is to produce 1.6-fold the Tau-Tau binding signal seen in the absence of any drug. The mean Kd for this effect is ˜15×. That is, for any given concentration of DMMB>4 μM, 50% of maximal enhancement of Tau-Tau binding can be seen when the ligand molar excess is 15-fold relative to the concentration of DMMB.

T1 sequence (P10636 614-708 limits assumed): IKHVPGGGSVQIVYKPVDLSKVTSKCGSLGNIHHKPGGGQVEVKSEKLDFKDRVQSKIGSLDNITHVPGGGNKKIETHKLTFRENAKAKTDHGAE

BMax of tau-tau binding (tau-tau binding; 5 μM DMMB): 1.38 | BMax of tau-tau binding (tau-tau binding; 25 μM DMMB): 1.67
SMILES: Cc1ccc2sc(-c3ccc4sc(-c5ccc(N)cc5)nc4c3)nc2c1S(=O)(=O)[O-].[Na+] [primulin]
labelling of tangles (neurofibrillary tangles): label tangles | reversal of inhibitory effect of DMMB on tau-tau binding (tau-tau binding; co-incubation with increasing molar excess of ligand): progressively attenuated and reversed; also recorded: completely reversed
